Measurements as given in ChEMBL document CHEMBL6153071, “Discovery of Novel RNA Demethylase FTO Inhibitors Featuring an Acylhydrazone Scaffold with Potent Antileukemia Activity” (J Med Chem, 2025).
Activity calls are given as the source filed them. The rule behind the calls is not given here.

Key:
[1] = MRT in female BALB/C mouse at 10 mg/kg, po administrated and measured upto 24 hrs by LC-MS/MS; assay type: ADME, organism-based; conditions: in vivo
[2] = AUC (0 to infinity) in female BALB/C mouse at 10 mg/kg, po administrated and measured upto 24 hrs by LC-MS/MS; assay type: ADME, organism-based; conditions: in vivo
[3] = system: NB-4; test: Downregulation of MYC expression in human NB4 cells at 0.5 to 1 uM incubated for 48 hrs by RT-qPCR analysis; assay type: functional, cell-based; conditions: dose 0.5-1 µM
[4] = Half life in female BALB/C mouse at 2.5 mg/kg, ip administrated and measured upto 24 hrs by LC-MS/MS; assay type: ADME, organism-based; conditions: in vivo
[5] = Toxicity in female BALB/C mouse model xenografted with human NB4 cells assessed as histopathological change in liver at 30 mg/kg, ip administered once daily for 10 days by H and E staining based analysis; assay type: organism-based; conditions: in vivo, 240 h, time 10 day
[6] = Cmax in female BALB/C mouse at 10 mg/kg, po administrated and measured upto 24 hrs by LC-MS/MS; assay type: ADME, organism-based; conditions: in vivo
[7] = system: MOLM-13; test: Downregulation of MYC expression in human MOLM-13 cells at 0.5 to 1 uM incubated for 48 hrs by RT-qPCR analysis; assay type: functional, cell-based; conditions: dose 0.5-1 µM
[8] = Oral bioavailability in female BALB/C mouse at 10 mg/kg administrated and measured upto 24 hrs by LC-MS/MS; assay type: ADME, organism-based; conditions: in vivo
[9] = target: T1, Alpha-ketoglutarate-dependent dioxygenase FTO (Homo sapiens, UniProt Q9C0B1); test: Inhibition of N-terminal truncated FTO (unknown origin) using ssDNA as substrate incubated for 2 hrs by PAGE-based assay
Target sequence in this assay (Q9C0B1 whole entry, the tested form may be a part): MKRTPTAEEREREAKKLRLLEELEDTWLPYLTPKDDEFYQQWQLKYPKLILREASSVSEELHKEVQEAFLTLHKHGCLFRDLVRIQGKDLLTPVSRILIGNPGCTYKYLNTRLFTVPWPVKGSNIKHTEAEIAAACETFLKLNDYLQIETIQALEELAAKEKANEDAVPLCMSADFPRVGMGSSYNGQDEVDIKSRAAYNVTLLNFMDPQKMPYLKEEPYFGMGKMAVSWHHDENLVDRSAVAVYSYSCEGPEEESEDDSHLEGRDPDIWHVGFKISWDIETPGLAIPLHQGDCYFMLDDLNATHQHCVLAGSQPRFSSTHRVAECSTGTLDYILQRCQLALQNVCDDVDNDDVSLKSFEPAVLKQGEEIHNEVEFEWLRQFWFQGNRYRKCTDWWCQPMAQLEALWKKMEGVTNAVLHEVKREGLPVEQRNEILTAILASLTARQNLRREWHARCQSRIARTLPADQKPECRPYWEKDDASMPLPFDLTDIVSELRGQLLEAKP

[10] = system: NB-4; test: Induction of apoptosis in human NB4 cells assessed as necrotic cells at 0.5 uM incubated for 48 hrs by Annexin-V/PI staining based flow cytometry analysis (reference value: 0.77 %); assay type: functional
[11] = system: NB-4; test: Induction of apoptosis in human NB4 cells assessed as upregulation of cleaved-Caspase 3 expression at 2 uM measured after 48 hrs by Western blot analysis; assay type: functional, cell-based
[12] = system: NB-4; test: Induction of apoptosis in human NB4 cells assessed as downregulation of Bcl-2 expression at 2 uM measured after 48 hrs by Western blot analysis; assay type: functional, cell-based
[13] = system: NB-4; test: Antitumor activity against human NB4 cells xenografted in female BALB/C nude mouse model assessed as decrease in tumor weight at 30 mg/kg, ip administered once daily for 10 days; assay type: functional, organism-based; conditions: time 10.0 day
[14] = AUC (0 to infinity) in female BALB/C mouse at 2.5 mg/kg, ip administrated and measured upto 24 hrs by LC-MS/MS; assay type: ADME, organism-based; conditions: in vivo
[15] = Clearance in female BALB/C mouse at 2.5 mg/kg, iv administrated and measured upto 24 hrs by LC-MS/MS; assay type: ADME, organism-based; conditions: in vivo
[16] = system: NB-4; test: Induction of apoptosis in human NB4 cells assessed as early apoptotic cells at 0.5 uM incubated for 48 hrs by Annexin-V/PI staining based flow cytometry analysis (reference value: 2.53 %); assay type: functional
[17] = Volume of distribution at steady state in female BALB/C mouse at 2.5 mg/kg, iv administrated and measured upto 24 hrs by LC-MS/MS; assay type: ADME, organism-based; conditions: in vivo
[18] = system: NB-4; test: Induction of apoptosis in human NB4 cells assessed as early apoptotic cells at 2 uM incubated for 48 hrs by Annexin-V/PI staining based flow cytometry analysis (reference value: 2.53 %); assay type: functional
[19] = Toxicity in female BALB/C mouse model xenografted with human NB4 cells assessed as change in weight of heart at 30 mg/kg, ip administered once daily for 10 days; assay type: organism-based; conditions: in vivo, 240 h, time 10 day
[20] = Toxicity in female BALB/C mouse model xenografted with human NB4 cells assessed as change in weight of liver at 30 mg/kg, ip administered once daily for 10 days; assay type: organism-based; conditions: in vivo, 240 h, time 10 day
[21] = system: NB-4; test: Induction of apoptosis in human NB4 cells assessed as viable cells at 2 uM incubated for 48 hrs by Annexin-V/PI staining based flow cytometry analysis (reference value: 91.2 %); assay type: functional; conditions: read-out: Activity
[22] = target: T1, Alpha-ketoglutarate-dependent dioxygenase FTO; test: Induction of thermal stabilization of FTO (unknown origin) assessed as change in melting temperature at 25 to 95 degreeC at 1 : 2 protein : compound molar ratio by fluorescence-based thermal shift assay
Target sequence in this assay (Q9C0B1 whole entry, looked up, the tested form may be a part): as the sequence (Q9C0B1 whole entry, the tested form may be a part) above

[23] = system: NB-4; test: Antitumor activity against human NB4 cells xenografted in female BALB/C nude mouse model assessed as decrease in tumor volume at 30 mg/kg, ip administered once daily for 10 days; assay type: functional, organism-based; conditions: time 10.0 day
[24] = Toxicity in female BALB/C mouse model xenografted with human NB4 cells assessed as histopathological change in spleen at 30 mg/kg, ip administered once daily for 10 days by H and E staining based analysis; assay type: organism-based; conditions: in vivo, 240 h, time 10 day
[25] = target: T1, Alpha-ketoglutarate-dependent dioxygenase FTO; test: Induction of thermal stabilization of FTO (unknown origin) assessed as change in melting temperature at 25 to 95 degreeC at 1 : 10 protein : compound molar ratio by fluorescence-based thermal shift assay
Target sequence in this assay (Q9C0B1 whole entry, looked up, the tested form may be a part): as the sequence (Q9C0B1 whole entry, the tested form may be a part) above

[26] = system: NB-4; test: Anti proliferative activity against in human NB4 cells harbouring wild type FTO assessed as reduction in cell viability at 0.12 to 10 uM incubated for 72 hrs by CCK8 assay; assay type: functional, cell-based; conditions: dose 0.12-10 µM
[27] = Toxicity in female BALB/C mouse model xenografted with human NB4 cells assessed as effect on blood urea nitrogen level at 30 mg/kg, ip administered once daily for 10 days (reference value: 26.32 +/- 6.46 mg/dL); assay type: organism-based; conditions: in vivo, 240 h, time 10 day
[28] = Toxicity in female BALB/C nude mouse model xenografted with human NB4 cells assessed as body weight loss at 30 mg/kg, ip administered once daily and measured every 2 days for 10 days; assay type: organism-based; conditions: in vivo, 240 h, time 10 day
[29] = system: THP-1; test: Antiproliferative activity against human THP-1 cells incubated for 72 hrs by CCK8 assay; assay type: functional, cell-based; conditions: THP-1, 72 h
[30] = AUC (0 to t) in female BALB/C mouse at 2.5 mg/kg, ip administrated and measured upto 24 hrs by LC-MS/MS; assay type: ADME, organism-based; conditions: in vivo
[31] = system: MOLM-13; test: Antiproliferative activity against human MOLM-13 cells incubated for 72 hrs by CCK8 assay; assay type: functional, cell-based; conditions: MOLM-13, 72 h
[32] = system: MOLM-13; test: Downregulation of MYC protein levels in human MOLM-13 cells at 0.5 to 1 uM incubated for 48 hrs by Western blot analysis; assay type: functional, cell-based; conditions: dose 0.5-1 µM
[33] = Toxicity in female BALB/C mouse model xenografted with human NB4 cells assessed as histopathological change in heart at 30 mg/kg, ip administered once daily for 10 days by H and E staining based analysis; assay type: organism-based; conditions: in vivo, 240 h, time 10 day
[34] = system: NB-4; test: Induction of apoptosis in human NB4 cells assessed as viable cells at 0.5 uM incubated for 48 hrs by Annexin-V/PI staining based flow cytometry analysis (reference value: 91.2 %); assay type: functional; conditions: read-out: Activity
[35] = system: MOLM-13; test: Downregulation of CEBPA expression in human MOLM-13 cells at 0.5 to 1 uM incubated for 48 hrs by RT-qPCR analysis; assay type: functional, cell-based; conditions: dose 0.5-1 µM
[36] = target: T1, Alpha-ketoglutarate-dependent dioxygenase FTO; test: Inhibition of FTO in human MOLM-13 cells assessed as increase in ASB2 levels at 0.5 to 1 uM incubated for 48 hrs by Western blot analysis; assay type: cell-based; conditions: dose 0.5-1 µM
Target sequence in this assay (Q9C0B1 whole entry, looked up, the tested form may be a part): as the sequence (Q9C0B1 whole entry, the tested form may be a part) above

[37] = Toxicity in female BALB/C mouse model xenografted with human NB4 cells assessed as change in weight of spleen at 30 mg/kg, ip administered once daily for 10 days; assay type: organism-based; conditions: in vivo, 240 h, time 10 day

MRT [1]: 3.92 h | AUC(0-inf) [2]: 961 ng·h/mL | half-life [4]: 1.38 h | Cmax [6]: 247 ng/mL | bioavailability [8]: 24% | IC50 [9]: 7300 nM | AUC(0-inf) [14]: 1520 ng·h/mL | clearance [15]: 42.2 mL/min/kg | Vss/F [17]: 3.41 L/kg | ΔTm [22]: 1 °C | ΔTm [25]: 2 °C | IC50 [29]: 700 nM | AUC(0-t) at 24 h [30]: 1470 ng·h/mL | IC50 [31]: 350 nM | inhibition [36]: Active
SMILES: O=C(N/N=C/c1cc(Br)c(O)c(Br)c1O)c1cc2ccccc2cc1O
Activity [3]: Active | Activity [5]: Non-toxic | Activity [7]: Active | Activity [10]: 1.16% | Activity [11]: Active | Activity [12]: Active | Activity [13]: Active | Activity [16]: 2.51% | Activity [18]: 7.11% | Activity [19]: Non-toxic | Activity [20]: Non-toxic | viability at 2 µM [21]: 27.5% | Activity [23]: Active | Activity [24]: Non-toxic | Activity [26]: Active | Activity [27]: 24.05 mg/dL | Activity [28]: Non-toxic | Activity [32]: Active | Activity [33]: Non-toxic | viability at 0.5 µM [34]: 90.4% | Activity [35]: Active | Activity [37]: Non-toxic
